This note sets out measurements from patent US20110319392A1, “Thiazole Sulfonamide And Oxazole Sulfonamide Kinase Inhibitors” (priority 2009, published 2011).

In test [1] the test system is HT-29 tumor cells. In words: Cell growth inhibition assay (CellTiter-Glo), HT-29. It counts as cell-based, Human. Particulars: Homo sapiens. How it is done:
(§1) Human breast tumor cells (BT474) were cultured in RPMI (Mediatech […]), containing 10% FBS (JRH Biosciences 12176) and 1% penicillin-streptomycin (Invitrogen 15140). Human head and neck tumor cells (HN5) were cultured in high glucose DMEM (Mediatech 50-013-PB) containing 10% FBS and 1% penicillin-streptomycin. Human colon tumor cells (Colo205) were cultured in RPMI (Mediatech 50-020-PB) containing 10% FBS and 1% penicillin-streptomycin. Human melanoma cancer cells (SK-MEL-28) were cultured in EMEM with nonessential amino acids (Mediatech 50-011-PB) containing 10% FBS, 1% sodium pyruvate (JT Baker 3354-04), and 1% penicillin-streptomycin. Human melanoma cancer cells (A375P F11s) were cultured in RPMI (Mediatech 50-020-PB) containing 10% FBS, 1% sodium pyruvate, and 1% penicillin-streptomycin. Human colon cancer cells (HT-29) were cultured in high glucose DMEM (Mediatech 50-013-PB) containing 10% FBS and 1% penicillin-streptomycin. Human melanoma cancer cells (SK-MEL-3) were cultured in McCoy's 5A (50-025-PB) containing 15% FBS, and 1% penicillin-streptomycin. All cell lines were maintained at 37° C. in a humidified 5% CO2, 95% air incubator. Cells were harvested using trypsin/EDTA (Invitrogen 25200), counted using a haemocytometer, and plated. For 96-well assays (using white full-area NUNC plates cat. #136102), cells were plated in 105 μL at the following densities (cells/well): HNS, 500; Colo 205, 500; SK-MEL-28, 500; A375P F11s, 500; HT-29, 500; SK-MEL-3, 500; and BT474, 3000. For 384-well assays (white full-area NUNC plates, cat. #781080), cells were plated in 48 μL at the following densities (cells/well): HNS, 500; Colo205, 500; SK-MEL-28, 500; A375P F11s, 500; HT-29, 500; SK-MEL-3, 500; and BT474, 2000.
(§2) The next day, compounds were diluted as follow: For 96-well assays, 13.5 μL of compound in DMSO were diluted using nine (9) serial 1:3 dilutions of 4.5 μL in 9 of DMSO. Medium (270 μL/well of RPMI with 10% FBS and 1% penicillin-streptomycin) was added to the plates. Aliquots (7 μL) were added to cells in the final assay giving a final DMSO concentration of 0.2%. For 384-well assays, 15 μL of compound in DMSO were diluted using nine (9) serial 1:3 dilutions of 5 μL in 10 μL of DMSO, followed by a further dilution of 5 μL of compound with 95 μL of medium, of which 2 μL were added to cells in the final assay giving a final DMSO concentration of 0.2%. Cells were incubated at 37° C., 5% CO2 for 3 days.
(§3) Total ATP was measured (as a surrogate estimate of cell number) using CellTiter-Glo® reagent (Promega G7571). Briefly, plates were removed from the incubator and allowed to equilibrate to room temperature for 30 minutes. CellTiter-Glo® (25 μL or 55 μL for 384-well or 96-well assays, respectively) reagent was added to each well and plates were shaken on an orbital plate shaker for 2 minutes. Plates were incubated without shaking for a further 30 minutes and read on an LJL Analyst GT reader in luminometer mode with an integration time of 0.5 seconds per well. Percent inhibition of cell growth was calculated relative to DMSO vehicle-treated control wells. Concentration of compound required to give 50% inhibition of vehicle-treated control cell growth (IC50) was interpolated using a 4-parameter fit for determining IC50 using the following equation: Y=A +((B−A)/(1+((C/X)̂D))) where […].
(In ATP-based viability assays light output follows the ATP content of the culture.)

For test [2], the system named is HN5 tumor cells. In words: Cell growth inhibition assay (CellTiter-Glo), HN5. It counts as cell-based, Human. Particulars: Homo sapiens, 72 h; 3 days incubation. How it is done:
as §1, §2, §3

Test [3] concerns the target T1, EGFR (Homo sapiens, UniProt P00533).
T1 construct: made in house; host or cells: baculovirus expression system
The experiment in a line: EGFR substrate phosphorylation assay (HTRF). It counts as biochemical. The gist of the method: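 Baculovirus-expressed EGFR (0.8 nM) or ErbB2 (10 nM) in enzyme mix, preincubated 1 h at 20 °C with compound (0.00027–47.6 μM final), then 90 min at 20 °C with substrate mix of 20 μM ATP, 0.8 uM biotinylated Peptide C, MnCl2, MOPS pH 7.5. Phosphotyrosine by HTRF; pIC50 reported.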
(Time-resolved FRET reads energy transfer from a long-lived donor to a nearby acceptor.)

Test [4] has as its system BT474 tumor cells. In words: Cell growth inhibition assay (CellTiter-Glo), BT474. Particulars: Homo sapiens, BT-474, 72 h, 3 days incubation. It counts as cell-based, Human. As to the method:
as §1, §2, §3

Each structure is given as a SMILES string. Counter-ions that a name gives are not always drawn. Some results are limits rather than exact numbers.

T1 sequence (P00533 25-1210): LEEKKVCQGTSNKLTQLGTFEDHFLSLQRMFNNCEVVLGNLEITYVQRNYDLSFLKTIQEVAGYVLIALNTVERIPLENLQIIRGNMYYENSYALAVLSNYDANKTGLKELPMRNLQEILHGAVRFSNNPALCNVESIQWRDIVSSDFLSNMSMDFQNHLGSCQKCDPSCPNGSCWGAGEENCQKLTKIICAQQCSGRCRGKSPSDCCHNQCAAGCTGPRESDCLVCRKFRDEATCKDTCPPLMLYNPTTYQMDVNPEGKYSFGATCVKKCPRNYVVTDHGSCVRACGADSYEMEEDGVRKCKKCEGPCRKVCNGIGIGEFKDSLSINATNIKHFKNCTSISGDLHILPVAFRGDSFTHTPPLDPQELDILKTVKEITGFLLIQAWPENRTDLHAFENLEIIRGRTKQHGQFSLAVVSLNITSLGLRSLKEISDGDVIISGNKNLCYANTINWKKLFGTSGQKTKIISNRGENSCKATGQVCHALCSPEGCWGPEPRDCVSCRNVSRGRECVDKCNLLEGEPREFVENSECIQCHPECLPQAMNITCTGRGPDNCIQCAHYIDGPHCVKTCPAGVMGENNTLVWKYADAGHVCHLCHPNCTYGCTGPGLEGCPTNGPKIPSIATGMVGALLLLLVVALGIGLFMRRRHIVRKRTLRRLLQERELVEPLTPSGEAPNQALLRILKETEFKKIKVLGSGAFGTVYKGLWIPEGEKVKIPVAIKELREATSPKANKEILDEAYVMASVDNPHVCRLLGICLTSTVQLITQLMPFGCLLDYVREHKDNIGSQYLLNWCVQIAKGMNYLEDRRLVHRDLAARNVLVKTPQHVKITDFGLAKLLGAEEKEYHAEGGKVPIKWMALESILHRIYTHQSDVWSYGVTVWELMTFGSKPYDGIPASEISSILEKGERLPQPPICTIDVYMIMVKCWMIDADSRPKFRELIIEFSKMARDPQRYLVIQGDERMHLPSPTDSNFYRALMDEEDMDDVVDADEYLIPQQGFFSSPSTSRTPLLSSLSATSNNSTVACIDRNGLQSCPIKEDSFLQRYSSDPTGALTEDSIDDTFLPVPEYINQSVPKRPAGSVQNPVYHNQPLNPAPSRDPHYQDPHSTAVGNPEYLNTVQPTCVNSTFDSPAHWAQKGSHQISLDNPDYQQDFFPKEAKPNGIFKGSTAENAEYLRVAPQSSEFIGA

In general, IC50 refers to the concentration that gives 50% inhibition. Turning to `COc1cc(N2CCC(N3CCN(CCS(C)(=O)=O)CC3)CC2)ccc1Nc1nccc(-c2sc(C(C)C)nc2-c2cccc(NS(=O)(=O)c3c(F)cccc3F)c2)n1` [Example 20, 2,6-Difluoro-N-{3-[2-(1-methylethyl)-5-(2-{[2-(methyloxy)-4-(4-{4-[2-(methylsulfonyl)ethyl]-1-piperazinyl}-1-piperidinyl)phenyl]amino}-4-pyrimidinyl)-1,3-thiazol-4-yl]phenyl}benzenesulfonamide], the 50% inhibitory concentration (IC50) in test [1] is above 1 µM; in test [2], above 1 µM; in test [3], below 0.1 µM; in test [4] it was above 1 µM.
As for `O=S(=O)(Nc1cccc(-c2nc(N3CCCC3)sc2-c2ccnc(Nc3ccc(N4CCN(CCF)CC4)c(F)c3)n2)c1)c1c(F)cccc1F` [Example 21, 2,6-Difluoro-N-{3-[5-[2-({3-fluoro-4-[4-(2-fluoroethyl)-1-piperazinyl]phenyl}amino)-4-pyrimidinyl]-2-(1-pyrrolidinyl)-1,3-thiazol-4-yl]phenyl}benzenesulfonamide], the concentration for half-maximal inhibition (IC50) is below 0.1 µM in test [1], 0.1 to 1 µM in test [2], below 0.1 µM in test [3] and above 1 µM in test [4].
In the case of `CC(C)c1nc(-c2ccc(F)c(NS(=O)(=O)c3ccccc3F)c2)c(-c2ccnc(Nc3ccc(N4CCN(CCS(C)(=O)=O)CC4)c(F)c3)n2)s1` [Example 22, 2-Fluoro-N-{2-fluoro-5-[5-{2-[(3-fluoro-4-}4-[2-(methylsulfonyl)ethyl]-1-piperazinyl}phenyl)amino]-4-pyrimidinyl}-2-(1-methylethyl)-1,3-thiazol-4-yl]phenyl}benzenesulfonamide hydrochloride], the IC50 in test [1] is 0.1 to 1 µM; in test [2], above 1 µM; in test [3], 0.1 to 1 µM; in test [4] it was above 1 µM.
Take `CC(C)c1nc(-c2ccc(F)c(NS(=O)(=O)c3c(F)cccc3F)c2)c(-c2ccnc(Nc3ccc(N4CCOCC4)nc3)n2)s1` [Example 23, 2,6-Difluoro-N-{2-fluoro-5-[2-(1-methylethyl)-5-(2-{[6-(4-morpholinyl)-3-pyridinyl]amino}-4-pyrimidinyl)-1,3-thiazol-4-yl]phenyl}benzenesulfonamide]: the IC50 in test [1] was below 0.1 µM; in test [2] it was above 1 µM; in test [3], 0.1 to 1 µM; in test [4] it was above 1 µM.
`CC(C)c1nc(-c2ccc(F)c(NS(=O)(=O)c3c(F)cccc3F)c2)c(-c2ccnc(Nc3ccc(N4CCC(C#N)CC4)nc3)n2)s1` [Example 24, N-{5-[5-(2-{[6-(4-Cyano-1-piperidinyl)-3-pyridinyl]amino}-4-pyrimidinyl)-2-(1-methylethyl)-1,3-thiazol-4-yl]-2-fluorophenyl}-2,6-difluorobenzenesulfonamide]: the IC50 in test [1] was below 0.1 µM; in test [2], above 1 µM; in test [3], above 1 µM; in test [4] it was above 1 µM.
`CC(C)c1nc(-c2ccc(F)c(NS(=O)(=O)c3c(F)cccc3F)c2)c(-c2ccnc(Nc3ccc(N4CCN(CCF)CC4)c(F)c3)n2)s1` [Example 25]: the 50% inhibitory concentration (IC50) in test [1] is 0.1 to 1 µM; in test [2] it was above 1 µM; in test [3], 0.1 to 1 µM; in test [4], above 1 µM.
Regarding `O=S(=O)(Nc1cc(-c2nc(N3CCCC3)sc2-c2ccnc(Nc3ccc(N4CCOCC4)nc3)n2)ccc1F)c1c(F)cccc1F` [Example 26, 2,6-Difluoro-N-{2-fluoro-5-[5-(2-{(6-(4-morpholinyl)-3-pyridinyl]amino}-4-pyrimidinyl)-2-(1-pyrrolidinyl)-1,3-thiazol-4-yl]phenyl}benzenesulfonamide], the concentration for half-maximal inhibition (IC50) in test [1] is above 1 µM; in test [2] it was above 1 µM; in test [3] it was 0.1 to 1 µM; in test [4], above 1 µM.
For the compound `CN(C)c1nc(-c2ccc(F)c(NS(=O)(=O)c3c(F)cccc3F)c2)c(-c2ccnc(Nc3ccc(N4CCOCC4)nc3)n2)s1` [Example 27, N-{5-[2-(Dimethylamino)-5-(2-{[6-(4-morpholinyl)-3-pyridinyl]amino}-4-pyrimidinyl)-1,3-thiazol-4-yl]-2-fluorophenyl}-2,6-difluorobenzenesulfonamide], the IC50 in test [1] was 0.1 to 1 µM; in test [2], above 1 µM; in test [3] it was 0.1 to 1 µM; in test [4] it was above 1 µM.
With `CC(C)(C)c1nc(-c2ccc(F)c(NS(=O)(=O)c3c(F)cccc3F)c2)c(-c2ccnc(Nc3ccc(N4CCOCC4)nc3)n2)s1` [Example 28, N-{5-[2-(1,1-Dimethylethyl)-5-(2-{[[6-(4-morpholinyl)-3-pyridinyl]amino}-4-pyrimidinyl)-1,3-thiazol-4-yl]-2-fluorophenyl]-2,6-difluorobenzenesulfonamide hydrochloride], the IC50 in test [1] was 0.1 to 1 µM; in test [2], above 1 µM; in test [3] it was above 1 µM; in test [4], above 1 µM.
As to `CC(C)c1nc(-c2cccc(NS(=O)(=O)c3c(F)cccc3F)c2F)c(-c2ccnc(Nc3ccc(N4CCN(CCF)CC4)c(F)c3)n2)s1` [Example 29, 2,6-Difluoro-N-{2-fluoro-3-[5-[2-({3-fluoro-4-[4-(2-fluoroethyl)-1-piperazinyl]phenyl}amino)-4-pyrimidinyl]-2-(1-methylethyl)-1,3-thiazol-4-yl]phenyl}benzenesulfonamide], the half-maximal inhibitory concentration (IC50) in test [1] is 0.1 to 1 µM; in test [2] it was 0.1 to 1 µM; in test [3], above 1 µM; in test [4], above 1 µM.
Turning to `CC(C)c1nc(-c2cccc(NS(=O)(=O)c3c(F)cccc3F)c2F)c(-c2ccnc(Nc3cnc(N4CCOCC4)c(F)c3)n2)s1` [Example 30, 2,6-Difluoro-N-{2-fluoro-3-[5-(2-{[5-fluoro-6-(4-morpholinyl)-3-pyridinyl]amino}-4-pyrimidinyl)-2-(1-methylethyl)-1,3-thiazol-4-yl]phenyl}benzenesulfonamide], the IC50 is 0.1 to 1 µM in test [1], below 0.1 µM in test [2], above 1 µM in test [3] and above 1 µM in test [4].
Regarding `CC(C)c1nc(-c2cc(F)c(F)c(NS(=O)(=O)c3cccc(F)c3)c2)c(-c2ccnc(Nc3cnc(N4CCOCC4)c(F)c3)n2)s1` [Example 31, N-{2,3-Difluoro-5-[5-(2-{[5-fluoro-6-(4-morpholinyl)-3-pyridinyl]amino}-4-pyrimidinyl)-2-(1-methylethyl)-1,3-thiazol-4-yl]phenyl}-3-fluorobenzenesulfonamide], the IC50 in test [1] was below 0.1 µM; in test [2], above 1 µM; in test [3], above 1 µM; in test [4], above 1 µM.
Turning to `CC(C)c1nc(-c2ccnc(NS(=O)(=O)c3c(F)cccc3F)c2)c(-c2ccnc(Nc3ccc(N4CCOCC4)nc3)n2)s1` [Example 32, 2,6-Difluoro-N-{4-[2-(1-methylethyl)-5-(2-{[6-(4-morpholinyl}-3-pyridinyl]amino}-4-pyrimidinyl)-1,3-thiazol-4-yl]-2-pyridinyl}benzenesulfonamide], the IC50 in test [1], in test [2], in test [3] and in test [4] was above 1 µM throughout.
`CC(C)c1nc(-c2ccnc(NS(=O)(=O)c3c(F)cccc3F)c2)c(-c2ccnc(Nc3cnc(N4CCOCC4)c(F)c3)n2)s1` [Example 33]: the concentration for half-maximal inhibition (IC50) in test [1] is 0.1 to 1 µM; in test [2], above 1 µM; in test [3], above 1 µM; in test [4] it was above 1 µM.
